How the values were obtained:
[1] = target: T1, mutEGFR (D770_N771insNPG, T790) (Homo sapiens, UniProt P00533, INS770NPG/T790M); assay: mutEGFR (D770_N771insNPG, T790) kinase assay; assay type: biochemical; settings: Table 2a, D770_N771insNPG
T1 construct: exact insNPG construct not described; in-house EGFR proteins were N-terminal GST fusions from baculovirus/insect cells (borders R669-A1210 given only for WT, insSVD, insASV)
Text: The different EGFR proteins used in the biochemical kinase activity inhibition assays were generated inhouse by expression in insect cells using Baculo Virus system and subsequent purification as described in the following paragraphs.
The cDNAs encoding the various protein sequences from human EGFR human (P00533) were optimized for expression in eukaryotic cells and synthesized by the GeneArt Technology at Life Technologies.

[2] = target: T2, mutEGFR (D770_N771insSVD) (Homo sapiens, UniProt P00533, DUP768-770); assay: Exon20-Mutant-EGFR (D770_N771insSVD) kinase assay (TR-FRET); assay type: biochemical; settings: mutEGFR (D770_N771insSVD) kinase assay IC50, Table 2a; D770_N771insSVD; 2 mM ATP
T2 construct: GST-EGFR #3 (SVD between D770 and N771); made in house; host or cells: Sf9 insect cells (baculovirus)

BA/F3 (insSVD) cells = assay: Ba/F3-EGFR-insSVD cell survival assay (Cell Titer-Glo); assay type: cell-based; settings: Mus musculus, BaF3, 48 h, Table 3a, cell survival, Cell Titer-Glo, with 10 ng/ml EGF, without IL-3
In short: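 Ba/F3 cells stably expressing retroviral EGFR-insSVD or insSVD T790M, grown without IL-3 on 10 ng/ml EGF, 4000 cells/well. Compound pinned in, 48 h at 37° C. Viability by CellTiter-Glo luminescence.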

T1 sequence (P00533 with tags, fused parts or gaps INS770NPG/T790M limits assumed): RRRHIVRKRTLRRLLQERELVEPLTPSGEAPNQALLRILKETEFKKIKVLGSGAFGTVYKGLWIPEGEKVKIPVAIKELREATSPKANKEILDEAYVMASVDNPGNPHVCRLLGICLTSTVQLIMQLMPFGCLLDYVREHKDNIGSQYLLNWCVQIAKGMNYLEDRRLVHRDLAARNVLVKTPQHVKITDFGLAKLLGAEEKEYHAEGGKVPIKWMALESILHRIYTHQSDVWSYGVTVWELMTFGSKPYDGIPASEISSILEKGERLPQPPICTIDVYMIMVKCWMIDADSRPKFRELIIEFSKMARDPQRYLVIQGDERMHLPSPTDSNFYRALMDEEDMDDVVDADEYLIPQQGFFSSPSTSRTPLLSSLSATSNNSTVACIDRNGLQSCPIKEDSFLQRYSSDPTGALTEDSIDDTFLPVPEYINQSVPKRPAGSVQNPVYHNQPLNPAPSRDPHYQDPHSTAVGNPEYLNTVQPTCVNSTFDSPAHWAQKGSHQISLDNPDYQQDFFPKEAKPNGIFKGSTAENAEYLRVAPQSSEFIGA
T2 sequence (P00533 with tags, fused parts or gaps DUP768-770): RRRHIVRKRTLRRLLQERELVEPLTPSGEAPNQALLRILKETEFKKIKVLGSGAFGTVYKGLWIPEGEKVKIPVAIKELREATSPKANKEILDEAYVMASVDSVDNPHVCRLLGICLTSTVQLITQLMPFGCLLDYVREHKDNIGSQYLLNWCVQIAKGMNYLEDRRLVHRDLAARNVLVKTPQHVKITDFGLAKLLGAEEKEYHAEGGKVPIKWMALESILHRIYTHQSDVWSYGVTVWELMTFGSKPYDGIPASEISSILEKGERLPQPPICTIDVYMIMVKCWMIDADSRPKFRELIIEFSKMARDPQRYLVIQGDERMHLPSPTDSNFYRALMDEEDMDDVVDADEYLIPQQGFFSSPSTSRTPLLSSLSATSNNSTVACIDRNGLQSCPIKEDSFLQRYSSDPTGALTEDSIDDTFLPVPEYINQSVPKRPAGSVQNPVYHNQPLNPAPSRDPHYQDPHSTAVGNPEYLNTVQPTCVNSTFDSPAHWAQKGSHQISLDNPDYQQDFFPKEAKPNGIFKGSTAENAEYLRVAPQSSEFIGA

CN(C)C/C=C/C(=O)N1CCn2nc(-c3ccc(F)cc3)c(-c3ccnc4[nH]ccc34)c2C1 [Example 98, (2E)-4-(dimethylamino)-1-[2-(4-fluorophenyl)-3-(1H-pyrrolo[2,3-b]pyridin-4-yl)-6,7-dihydropyrazolo[1,5-a]pyrazin-5(4H)-yl]but-2-en-1-one]
IC50 [1]: 11.6 nM | IC50 [2]: 10.4 nM | IC50 (BA/F3 (insSVD) cells): 209 nM

Cc1ccc(-c2nn3c(c2-c2ccnc4[nH]ccc24)CN(C(=O)/C=C/CN(C)C)CC3)c(F)c1 [Example 99, (2E)-4-(dimethylamino)-1-[2-(2-fluoro-4-methylphenyl)-3-(1H-pyrrolo[2,3-b]pyridin-4-yl)-6,7-dihydropyrazolo[1,5-a]pyrazin-5(4H)-yl]but-2-en-1-one]
IC50 [1]: 57.1 nM | IC50 [2]: 5.72 nM | IC50 (BA/F3 (insSVD) cells): 337 nM

C[C@@H]1Cn2nc(-c3cccc(C#N)c3)c(-c3ccncc3)c2CN1C(=O)/C=C/CN(C)C [Example 100, 3-[(6R)-5-[(2E)-4-(dimethylamino)but-2-enoyl]-6-methyl-3-(pyridin-4-yl)-4,5,6,7-tetrahydropyrazolo[1,5-a]pyrazin-2-yl]benzonitrile]
IC50 [1]: 3.57 nM | IC50 [2]: 19.6 nM | IC50 (BA/F3 (insSVD) cells): 420 nM

C[C@H]1Cn2nc(-c3cccc(C#N)c3)c(-c3ccncc3)c2CN1C(=O)/C=C/CN(C)C [Example 101, 3-[(6S)-5-[(2E)-4-(dimethylamino)but-2-enoyl]-6-methyl-3-(pyridin-4-yl)-4,5,6,7-tetrahydropyrazolo[1,5-a]pyrazin-2-yl]benzonitrile]
IC50 [1]: 3.5 nM | IC50 [2]: 16.8 nM | IC50 (BA/F3 (insSVD) cells): 44.6 nM

C=CC(=O)N1CCn2nc(-c3ccc(C)cc3F)c(-c3ccnc4[nH]ccc34)c2C1 [Example 102, 1-[2-(2-fluoro-4-methylphenyl)-3-(1H-pyrrolo[2,3-b]pyridin-4-yl)-6,7-dihydropyrazolo[1,5-a]pyrazin-5(4H)-yl]prop-2-en-1-one]
IC50 [1]: 22.8 nM | IC50 [2]: 4.77 nM | IC50 (BA/F3 (insSVD) cells): 49.8 nM

CN(C)C/C=C/C(=O)N1CCn2nc(-c3ccc(Cl)cc3F)c(-c3ccnc4[nH]ccc34)c2C1 [Example 103, (2E)-1-[2-(4-chloro-2-fluorophenyl)-3-(1H-pyrrolo[2,3-b]pyridin-4-yl)-6,7-dihydropyrazolo[1,5-a]pyrazin-5(4H)-yl]-4-(dimethylamino)but-2-en-1-one]
IC50 [1]: 25.2 nM | IC50 [2]: 3.7 nM | IC50 (BA/F3 (insSVD) cells): 122 nM

C=CC(=O)N1CCn2nc(-c3ccc(Cl)cc3F)c(-c3ccnc4[nH]ccc34)c2C1 [Example 104, 1-[2-(4-chloro-2-fluorophenyl)-3-(1H-pyrrolo[2,3-b]pyridin-4-yl)-6,7-dihydropyrazolo[1,5-a]pyrazin-5(4H)-yl]prop-2-en-1-one]
IC50 [1]: 9.09 nM | IC50 [2]: 1.66 nM | IC50 (BA/F3 (insSVD) cells): 32 nM

C=CC(=O)N1CCn2nc(-c3ccc(F)c4ccoc34)c(-c3ccncc3)c2C1 [Example 105, 1-[2-(4-fluoro-1-benzofuran-7-yl)-3-(pyridin-4-yl)-6,7-dihydropyrazolo[1,5-a]pyrazin-5(4H)-yl]prop-2-en-1-one]
IC50 [1]: 1.57 nM | IC50 [2]: 1.48 nM | IC50 (BA/F3 (insSVD) cells): 233 nM

C=CC(=O)N1CCn2nc(-c3ccc(F)c4ccccc34)c(-c3ccncc3)c2C1 [Example 106, 1-[2-(4-fluoronaphthalen-1-yl)-3-(pyridin-4-yl)-6,7-dihydropyrazolo[1,5-a]pyrazin-5(4H)-yl]prop-2-en-1-one]
IC50 [1]: 0.546 nM | IC50 [2]: 0.528 nM | IC50 (BA/F3 (insSVD) cells): 214 nM

C=CC(=O)N1CCn2nc(-c3cccc4ccoc34)c(-c3ccncc3)c2C1 [Example 107]
IC50 [1]: 0.564 nM | IC50 [2]: 0.844 nM | IC50 (BA/F3 (insSVD) cells): 41.4 nM

C=CC(=O)N1CCn2nc(-c3ccc4c(C)c[nH]c4c3)c(-c3ccncc3)c2C1 [Example 108, 1-[2-(3-methyl-1H-indol-6-yl)-3-(pyridin-4-yl)-6,7-dihydropyrazolo[1,5-a]pyrazin-5(4H)-yl]prop-2-en-1-one]
IC50 [1]: 0.425 nM | IC50 [2]: 0.351 nM | IC50 (BA/F3 (insSVD) cells): 33.3 nM

C=CC(=O)N1CCn2nc(-c3cc4ccccc4cc3F)c(-c3ccncc3)c2C1 [Example 109, 1-[2-(3-fluoronaphthalen-2-yl)-3-(pyridin-4-yl)-6,7-dihydropyrazolo[1,5-a]pyrazin-5(4H)-yl]prop-2-en-1-one]
IC50 [1]: 0.149 nM | IC50 [2]: 0.111 nM | IC50 (BA/F3 (insSVD) cells): 42 nM

C=CC(=O)N1CCn2nc(-c3ccc(C)cc3F)c(-c3ccncc3)c2C1 [Example 110, 1-[2-(2-fluoro-4-methylphenyl)-3-(pyridin-4-yl)-6,7-dihydropyrazolo[1,5-a]pyrazin-5(4H)-yl]prop-2-en-1-one]
IC50 [1]: 1.93 nM | IC50 [2]: 0.75 nM | IC50 (BA/F3 (insSVD) cells): 33.2 nM

C=CC(=O)N1CCn2nc(-c3ccc4ccccc4c3F)c(-c3ccncc3)c2C1 [Example 111, 1-[2-(1-fluoronaphthalen-2-yl)-3-(pyridin-4-yl)-6,7-dihydropyrazolo[1,5-a]pyrazin-5(4H)-yl]prop-2-en-1-one]
IC50 [1]: 0.259 nM | IC50 [2]: 0.13 nM | IC50 (BA/F3 (insSVD) cells): 27.5 nM

C=CC(=O)N1CCn2nc(-c3cc4ccoc4cc3F)c(-c3ccncc3)c2C1 [Example 112, 1-[2-(6-fluoro-1-benzofuran-5-yl)-3-(pyridin-4-yl)-6,7-dihydropyrazolo[1,5-a]pyrazin-5(4H)-yl]prop-2-en-1-one]
IC50 [1]: 0.448 nM | IC50 [2]: 0.196 nM | IC50 (BA/F3 (insSVD) cells): 20.3 nM

C=CC(=O)N1CCn2nc(-c3ccc(C)cc3O)c(-c3ccncc3)c2C1 [Example 113, 1-[2-(2-hydroxy-4-methylphenyl)-3-(pyridin-4-yl)-6,7-dihydropyrazolo[1,5-a]pyrazin-5(4H)-yl]prop-2-en-1-one]
IC50 [1]: 3.91 nM | IC50 [2]: 1.76 nM | IC50 (BA/F3 (insSVD) cells): 55.5 nM

C=CC(=O)N1CCn2nc(-c3ccc4cc[nH]c4c3F)c(-c3ccncc3)c2C1 [Example 114]
IC50 [1]: 0.218 nM | IC50 [2]: 0.144 nM | IC50 (BA/F3 (insSVD) cells): 13.7 nM

C=CC(=O)N1CCn2nc(-c3ccc(Cl)cc3Cl)c(-c3ccncc3)c2C1 [Example 115, 1-[2-(2,4-dichlorophenyl)-3-(pyridin-4-yl)-6,7-dihydropyrazolo[1,5-a]pyrazin-5(4H)-yl]prop-2-en-1-one]
IC50 [1]: 0.949 nM | IC50 [2]: 0.22 nM | IC50 (BA/F3 (insSVD) cells): 42.2 nM

C=CC(=O)N1CCn2nc(-c3ccc(Cl)cc3OC)c(-c3ccncc3)c2C1 [Example 116, 1-[2-(4-chloro-2-methoxyphenyl)-3-(pyridin-4-yl)-6,7-dihydropyrazolo[1,5-a]pyrazin-5(4H)-yl]prop-2-en-1-one]
IC50 [1]: 11.5 nM | IC50 [2]: 8.38 nM | IC50 (BA/F3 (insSVD) cells): 635 nM

C=CC(=O)N1CCn2nc(-c3ccc(Cl)cc3C)c(-c3ccncc3)c2C1 [Example 117, 1-[2-(4-chloro-2-methylphenyl)-3-(pyridin-4-yl)-6,7-dihydropyrazolo[1,5-a]pyrazin-5(4H)-yl]prop-2-en-1-one]
IC50 [1]: 1.86 nM | IC50 [2]: 0.384 nM | IC50 (BA/F3 (insSVD) cells): 54.5 nM

C=CC(=O)N1CCn2nc(-c3ccc(Cl)c(C#N)c3)c(-c3ccncc3)c2C1 [Example 118, 2-chloro-5-[5-(prop-2-enoyl)-3-(pyridin-4-yl)-4,5,6,7-tetrahydropyrazolo[1,5-a]pyrazin-2-yl]benzonitrile]
IC50 [1]: 4.9 nM | IC50 [2]: 8.55 nM | IC50 (BA/F3 (insSVD) cells): 183 nM

C=CC(=O)N1CCn2nc(-c3ccc(F)c(C#N)c3)c(-c3ccncc3)c2C1 [Example 119, 2-fluoro-5-[5-(prop-2-enoyl)-3-(pyridin-4-yl)-4,5,6,7-tetrahydropyrazolo[1,5-a]pyrazin-2-yl]benzonitrile]
IC50 [1]: 7.03 nM | IC50 [2]: 23.2 nM | IC50 (BA/F3 (insSVD) cells): 153 nM

C=CC(=O)N1CCn2nc(-c3cccc(C#N)c3F)c(-c3ccncc3)c2C1 [Example 120, 2-fluoro-3-[5-(prop-2-enoyl)-3-(pyridin-4-yl)-4,5,6,7-tetrahydropyrazolo[1,5-a]pyrazin-2-yl]benzonitrile]
IC50 [1]: 50.3 nM | IC50 [2]: 50.5 nM | IC50 (BA/F3 (insSVD) cells): 933 nM

C=CC(=O)N1Cc2c(-c3ccncc3)c(-c3ccc(Cl)cc3)nn2C[C@@H]1C [Example 122, 1-[(6S)-2-(4-chlorophenyl)-6-methyl-3-(pyridin-4-yl)-6,7-dihydropyrazolo[1,5-a]pyrazin-5(4H)-yl]prop-2-en-1-one]
IC50 [1]: 0.803 nM | IC50 [2]: 0.369 nM | IC50 (BA/F3 (insSVD) cells): 13.8 nM

C=CC(=O)N1Cc2c(-c3ccncc3)c(-c3ccc(Cl)cc3)nn2C[C@H]1C [Example 123, 1-[(6R)-2-(4-chlorophenyl)-6-methyl-3-(pyridin-4-yl)-6,7-dihydropyrazolo[1,5-a]pyrazin-5(4H)-yl]prop-2-en-1-one]
IC50 [1]: 1.95 nM | IC50 [2]: 1.19 nM | IC50 (BA/F3 (insSVD) cells): 23.7 nM

C=CC(=O)N1Cc2c(-c3ccncc3)c(-c3ccc(C(F)(F)F)cc3F)nn2C[C@@H]1C [Example 124, 1-[(6S)-2-[2-fluoro-4-(trifluoromethyl)phenyl]-6-methyl-3-(pyridin-4-yl)-6,7-dihydropyrazolo[1,5-a]pyrazin-5(4H)-yl]prop-2-en-1-one]
IC50 [1]: 2.08 nM | IC50 [2]: 0.859 nM | IC50 (BA/F3 (insSVD) cells): 30.4 nM

C=CC(=O)N1Cc2c(-c3ccncc3)c(-c3cccc(C#N)c3)nn2C[C@H]1C [Example 126, 3-[(6R)-6-methyl-5-(prop-2-enoyl)-3-(pyridin-4-yl)-4,5,6,7-tetrahydropyrazolo[1,5-a]pyrazin-2-yl]benzonitrile]
IC50 [1]: 4.52 nM | IC50 [2]: 12.4 nM | IC50 (BA/F3 (insSVD) cells): 86.5 nM

Reference: US20260365653A1, “IRREVERSIBLE MUTEGFR INHIBITORS” (Bayer Aktiengesellschaft, priority 2022, published 2026)
